Consider 27 compounds from patent US6300499A, “α1-adrenergic receptor antagonists” (Societe de Conseils de Recherches et d'Applications …, priority 1998, dated 2001).

For one experiment, the target named is α1-adrenergic receptor. Description: Test of the bond to the α1-adrenergic receptor (inhibition of [3H]prazosin bond to rat cerebral cortex). The format is binding, rat (male Sprague Dawley). Particulars: [3H]prazosin 0.2 nM, rat cerebral cortex membranes, 30 min, 25° C., pH 7.7. How it is done:
The cerebral cortices of male Sprague Dawley rats are homogenized at 4° C. in Tris-HCl 50 mM pH=7.7 and centrifuged at 50,000 g for 30 minutes at 4° C. The pellets are again suspended in the same buffer and centrifuged again at 50,000 g for 30 minutes at 4° C.
The filters are rinsed three times with the same buffer at 0-4° C. and their radioactivity is tested by liquid scintillation spectrometry.
The specific bonds are obtained by subtracting the non-specific bonds (determined in the presence of 10 μM of phentolamine (Sigma Chemical Co. St. Louis Mo.)) from the total bonds. The data relative to the bonds is analyzed by computer assisted iterative non-linear regression analysis, using the Ligand program (Munson, P. J., Rodbard, D. Anal. Biochem. 107:220 (1980)).

Another experiment concerns prostatic urethrae. Description: Urethra Contraction Test (inhibition of phenylephrine contraction of prostatic urethra). On the set-up: species or system rabbit (male New Zealand). Particulars: inhibition of contraction of rabbit prostatic urethra, agonist phenylephrine, compound 30 min before. As for the experimental part: The urethrae are removed from male New Zealand rabibits, and cleaned of the surrounding connective tissues. Bands of prostatic urethrae (3 mm wide, 10-15 mm long) are suspended (1 g tension) in organ baths containing 10 ml of physiological solution (pH 7.4) at 37° C. under an atmosphere of 95% O2 /5% CO2; NaCl (118 mM); KCl (4.7 mM); CaCl2 (2.5 mM); KH2 PO4 (1.2 mM); MgSO4 (1.2 mM); NaHCO3 (25 mM); glucose (11 mM). The contractile responses are measured using force displacement transducers coupled to a Gould 8000S polygraph. A one hour period of equilibration or equalization is provided before the experiment. After equalization, the preparations are sensitized by a submaximal concentration of phenylephrine. Forty five minutes after the sensitization, a concentration-effect curve for the phenylephrine is established. In order to determine the effect of the test compounds, different preparations originating from the same animal are used in parallel. One preparation serves as a control whilst the others receive a concentration of a test compound introduced into the bath 30 minutes before the phenylephrine (Auguet, M. et al. European J. Pharmacol. 217:153 (1995)).
The dissociation constants (Kb) of the test compounds are determined using the following equation: Kb =[B]/(dose ratio--1); in which [B] is the concentration of test compound and (dose ratio) is the EC50 of phenylephrine in the presence of the test compound divided by the EC50 of the control preparation. These resultats are then expressed as the negative logarithm of Kb. The values of the EC50 are calculated from the maximum contractile response to the phenylephrine by computer analysis using a linear regression over the average tension values. The maximum contractile response of each preparation which was subjected to the test compound is determined by comparing the response provoked by the application of the sensitizing concentration of phenylephrine with the response provoked in the control preparation (which has not received the test compounds).

In the case of `COc1ccccc1N1CCN(CCCNC(=O)C(O)(c2ccccc2)c2ccccc2)CC1` [Compound 14, α-hydroxy-N-[3-{4-(2-methoxyphenyl)-1-piperazinyl}-propyl]-α-phenyl-benzeneacetamide], the Ki (as a rule, the equilibrium dissociation constant of an inhibitor or competing ligand from its target) on α1-adrenergic receptor stood at 27 nM. Besides, the “-log Kb” value in the experiment with prostatic urethrae was 7.8.

On α1-adrenergic receptor, `Cc1ccc(C)c(N2CCN(CCCNC(=O)C(C)c3ccccc3)CC2)c1` (racemic) [Compound 38, (±)-N-[3-{4-(2,5-dimethylphenyl)-1-piperazinyl}-propyl]-α-methyl-benzeneacetamide] came in with an inhibitory constant (Ki) of 30 nM. For the same compound, the “-log Kb” value with prostatic urethrae is recorded as 7.5.

In the case of `COc1ccccc1N1CCN(CCCNC(=O)C2c3ccccc3Oc3ccccc32)CC1` [Compound 15, N-[3-{4-(2-methoxyphenyl)-1-piperazinyl}-propyl]-9H-xanthene-9-carboxamide], the affinity on α1-adrenergic receptor corresponds to a Ki of 27 nM. In the experiment on prostatic urethrae, the “-log Kb” value is recorded as 7.9.

Compound `Cc1ccc(C)c(N2CCN(CCCNC(=O)C(c3ccccc3)c3ccccc3)CC2)c1` [Compound 20, N-[3-{4-(2,5-dimethylphenyl)-1-piperazinyl}-propyl]-α-phenyl-benzeneacetamide] came in with a Ki at α1-adrenergic receptor of 27 nM. In addition, the “-log Kb” value in the experiment with prostatic urethrae was found to be 7.5.

With `Cc1ccc(C)c(N2CCN(CCCNC(=O)C(C)(O)c3ccccc3)CC2)c1` (racemic) [Compound 22, (±)-N-[3-{4-(2,5-dimethylphenyl)-1-piperazinyl}-propyl]-α-hydroxy-α-methyl-benzeneacetamide], the Ki on α1-adrenergic receptor is 25 nM. Besides, the “-log Kb” value in the experiment on prostatic urethrae came out at 8.3.

Consider `Cc1ccc(C)c(N2CCN(CCCNC(=O)C(C(=O)NCc3ccccc3)c3ccccc3)CC2)c1` (racemic) [Compound 47, (±)-N-[3-{4-(2,5-dimethylphenyl)-1-piperazinyl}-propyl]-α-benzylaminocarbonyl-benzeneacetamide], for which the inhibitory constant (Ki) at α1-adrenergic receptor is 14 nM. For the same compound, the “-log Kb” value in the experiment with prostatic urethrae came to 7.07.

`COc1ccccc1N1CCN(CCCNC(=O)C2(O)c3ccccc3-c3ccccc32)CC1` [Compound 16, 9-hydroxy-N-[3-{4-(2-methoxyphenyl)-1-piperazinyl}-propyl]-9H-fluorene-9-carboxamide]: the affinity at α1-adrenergic receptor corresponds to a Ki of 41 nM. In the experiment with prostatic urethrae, the “-log Kb” value is recorded as 7.8.

For `Cc1ccc(C)c(N2CCN(CCCNC(=O)C(C)(C(=O)NCc3ccccc3)c3ccccc3)CC2)c1` (racemic) [Compound 50, (±)-N-[3-{4-(2,5-dimethylphenyl)-1-piperazinyl}-propyl]-α-benzylaminocarbonyl-α-methyl-benzeneacetamide], at α1-adrenergic receptor, the affinity, expressed as Ki, was 50 nM. In the experiment with prostatic urethrae, the “-log Kb” value is 6.92.

`Cc1ccccc1N1CCN(CCCNC(=O)C(O)(c2ccccc2)c2ccccc2)CC1` [Compound 2, α-hydroxy-N-[3-{4-(2-methylphenyl)-1-piperazinyl}-propyl]-α-phenyl-benzeneacetamide]: the inhibition constant (Ki) at α1-adrenergic receptor came to 30 nM. In addition, the “-log Kb” value in the experiment with prostatic urethrae is listed as 8.

The compound `COc1ccc(C(O)(C(=O)NCCCN2CCN(c3cc(C)ccc3C)CC2)c2ccc(OC)cc2)cc1` [Compound 25, N-[3-{4-(2,5-dimethylphenyl)-1-piperazinyl}-propyl]-α-hydroxy-4-methoxy-α-(4-methoxyphenyl)-benzeneacetamide] yielded a Ki at α1-adrenergic receptor of 29 nM. In addition, the “-log Kb” value with prostatic urethrae is recorded as 7.6.

`COc1ccc(C(C)(O)C(=O)NCCCN2CCN(c3cc(C)ccc3C)CC2)cc1` (racemic) [Compound 40, (±)-N-[3-{4-(2,5-dimethylphenyl)-1-piperazinyl}-propyl]-α-hydroxy-α-methyl-4-methoxy-benzeneacetamide]: the Ki at α1-adrenergic receptor amounted to 38 nM.

At α1-adrenergic receptor, `Cc1ccc(N2CCN(CCCNC(=O)C(O)(c3ccccc3)c3ccccc3)CC2)c(C)c1` [Compound 5, N-[3-{4-(2,4-dimethylphenyl)-1-piperazinyl}-propyl]-α-hydroxy-α-phenyl-benzeneacetamide] returned an inhibitory constant (Ki) of 60 nM.

`COc1ccccc1N1CCN(CCCNC(=O)C(O)(c2ccccc2Cl)c2ccccc2Cl)CC1` [Compound 17, 2-chloro-α-(2-chlorophenyl)-α-hydroxy-N-[3-{4-(2-methoxyphenyl)-1-piperazinyl}-propyl]-α-phenyl-benzeneacetamide] registered a Ki on α1-adrenergic receptor of 54 nM. Also, in the experiment on prostatic urethrae, the “-log Kb” value is listed as 7.7.

`Cc1ccc(C)c(N2CCN(CCCNC(=O)C(C)(C)O)CC2)c1` (racemic) [Compound 54, (±)-N-[3-{4-(2,5-dimethylphenyl)-1-piperazinyl}-propyl]-2-hydroxy-2-methyl-propionamide] gave an inhibition constant Ki at α1-adrenergic receptor of 280 nM.

Turning to `Cc1ccc(C)c(N2CCN(CCCNC(=O)C(NS(C)(=O)=O)c3ccccc3)CC2)c1` (racemic) [Compound 33, (±)-N-[3-{4-(2,5-dimethylphenyl)-1-piperazinyl}-propyl]-α-(methylsulphonylamino)-benzeneacetamide], the Ki at α1-adrenergic receptor was 40 nM.

Consider `COc1ccc(CC(C)(O)C(=O)NCCCN2CCN(c3cc(C)ccc3C)CC2)cc1` (racemic) [Compound 34, (±)-N-[3-{4-(2,5-dimethylphenyl)-1-piperazinyl}-propyl]-2-hydroxy-2-methyl-4-methoxy-benzenepropionamide], for which the inhibition constant Ki at α1-adrenergic receptor worked out at 45 nM.

On α1-adrenergic receptor, `Cc1ccc(C)c(N2CCN(CCCNC(=O)C(C)(OCc3ccccc3)c3ccccc3)CC2)c1` (racemic) [Compound 52, (±)-N-[3-{4-(2,5-dimethylphenyl)-1-piperazinyl}-propyl]-α-benzyloxy-α-methyl-benzeneacetamide] yielded an inhibitory constant (Ki) of 51 nM.

In the case of `Cc1cccc(N2CCN(CCCNC(=O)C(O)(c3ccccc3)c3ccccc3)CC2)c1` [Compound 1, α-hydroxy-N-[3-{4-(3-methylphenyl)-1-piperazinyl}-propyl]-α-phenylbenzeneacetamide], on α1-adrenergic receptor, the Ki came out at 51 nM.

As to `COc1ccccc1N1CCN(CCCNC(=O)C(O)c2ccccc2)CC1` (racemic) [Compound 19, (±)-α-hydroxy-N-[3-{4-(2-methoxyphenyl)-1-piperazinyl}-propyl]-benzeneacetamide], on α1-adrenergic receptor, the Ki was 60 nM.

Compound `Cc1ccc(C)c(N2CCN(CCCNC(=O)C(C)(O)c3ccc(Cl)cc3)CC2)c1` (racemic) [Compound 30, (±)-4-chloro-N-[3-{4-(2,5-dimethylphenyl)-1-piperazinyl}-propyl]-α-hydroxy-α-methyl-benzeneacetamide] returned a Ki at α1-adrenergic receptor of 44 nM.

In turn, `CCCCC(O)(C(=O)NCCCN1CCN(c2cc(C)ccc2C)CC1)c1ccccc1` (racemic) [Compound 28, (±)-N-[3-{4-(2,5-dimethylphenyl)-1-piperazinyl}-propyl]-2-hydroxy-2-phenyl-hexanamide] gave an inhibition constant (Ki) at α1-adrenergic receptor of 36 nM.

At α1-adrenergic receptor, `Cc1ccc(C)c(N2CCN(CCCNC(=O)C(NC(=O)Cc3ccccc3)c3ccccc3)CC2)c1` (racemic) [Compound 49, (±)-N-[3-{4-(2,5-dimethylphenyl)-1-piperazinyl}-propyl]-α-benzylcarbonylamino-benzeneacetamide] displayed a Ki of 50 nM.

With `Cc1ccc(C)c(N2CCN(CCCNC(=O)C(C)(O)c3ccc4ccccc4c3)CC2)c1` (racemic) [Compound 43, (±)-N-[3-{4-(2,5-dimethylphenyl)-1-piperazinyl}-propyl]-α-hydroxy-α-methyl-2-naphthaleneacetamide], on α1-adrenergic receptor, the Ki is 29 nM.

In the case of `Cc1cccc(C)c1N1CCN(CCCNC(=O)C(O)(c2ccccc2)c2ccccc2)CC1` [Compound 6, N-[3-{4-(2,6-dimethylphenyl)-1-piperazinyl}-propyl]-a-hydroxy-a-phenyl-benzeneacetamide], the inhibition constant Ki on α1-adrenergic receptor was determined as 480 nM.

The compound `Cc1ccc(C)c(N2CCN(CCCNC(=O)C(C)(O)c3ccccc3Cl)CC2)c1` (racemic) [Compound 29, (±)-2-chloro-N-[3-{4-(2,5-dimethylphenyl)-1-piperazinyl}-propyl]-α-hydroxy-α-methyl-benzeneacetamide] gave a Ki at α1-adrenergic receptor of 67 nM.

Turning to `COc1ccccc1N1CCN(CCCNC(=O)C(c2ccccc2)C2CCCCC2)CC1` (racemic) [Compound 18, (±)-α-cyclohexyl-N-[3-{4-(2-methoxyphenyl)-1-piperazinyl}-propyl]-benzeneacetamide], affinity at α1-adrenergic receptor was put at a Ki of 55 nM.

With `CCC(O)c1ccccc1N1CCN(CCCNC(=O)C(c2ccccc2)c2ccccc2)CC1` (racemic) [Compound 36, (±)-N-[3-{4-(2-(1-hydroxypropyl)-phenyl)-1-piperazinyl}-propyl]-α-phenyl-benzeneacetamide], at α1-adrenergic receptor, the affinity, expressed as Ki, was 170 nM.
